The experiment addresses T1, TON_0340 (Thermococcus onnurineus, UniProt B6YTD8).
T1 construct: C-terminal CPD-(His)10 fusion auto-cleaved with phytate; E. coli BL21(DE3) RIPL; assay sample from dissolved crystals, EDTA-treated
T1 sequence (B6YTD8 1-268): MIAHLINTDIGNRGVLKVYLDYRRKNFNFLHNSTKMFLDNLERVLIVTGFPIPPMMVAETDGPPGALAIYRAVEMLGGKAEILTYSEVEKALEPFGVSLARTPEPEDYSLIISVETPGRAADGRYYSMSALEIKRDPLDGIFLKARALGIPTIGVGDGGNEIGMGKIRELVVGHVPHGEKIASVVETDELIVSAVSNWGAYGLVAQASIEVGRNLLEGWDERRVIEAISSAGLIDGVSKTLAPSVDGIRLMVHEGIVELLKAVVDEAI
Nature of the experiment: inorganic phosphate release (EnzChek / malachite green). In kind it is biochemical. The following applies: 2 mM AMP, 2 mM MnCl2, 100 mM HEPES pH 7.5, 100 mM NaCl, 37°C; Mn2+-dependent.

As to `Nc1ncnc2c1ncn2[C@@H]1O[C@H](COP(=O)(O)O)[C@@H](O)[C@H]1O` [AMP], the “inorganic phosphate release (EnzChek / malachite green)” value is given as “The highest activity was observed with AMP”.

These data come from publication PMC5132392, “Identification of a Highly Conserved Hypothetical Protein TON_0340 as a Probable Manganese-Dependent Phosphatase” (PLoS ONE, 2016).
